Results: US9597407B2, “Targeted antimicrobial moieties” (C3 Jian, Inc., priority 2009, dated 2017)
“Also recorded” adds a separate entry of the source.

B1: PF-749 (peptide)
chain 1: GVNKWWEEHNKAKLWKNVKGKFLEGEGEEEDDE
chain 2: B1 chain 1
modifications: Peptide with targeting and/or antimicrobial activity
B2: PF-745 (peptide)
chain 1: ANSQNSLFSNRSSFKSIFDKKSNITTNATTPNSNIIIN
chain 2: B2 chain 1
modifications: Peptide with targeting and/or antimicrobial activity
B3: PF-763 (peptide)
chain 1: GIWMARNYFHRSSIRKVYVESDKEYERVHPMQKIQYEGNYKSQ
chain 2: B3 chain 1
modifications: Peptide with targeting and/or antimicrobial activity
B4: PF-761 (peptide)
chain 1: SKFELVNYASGCSCGADCKCASETECKCASKK
chain 2: B4 chain 1
modifications: Peptide with targeting and/or antimicrobial activity

Assays:
[1] = system: microorganisms; assay: Peptide activities: binding, antimicrobial, growth or phenotype altering (Table 8)
From the text: In certain embodiments, peptides described herein can have multiple activities. Thus for example, a peptide can have both binding/targeting activity and antimicrobial activity. Such peptides can be used, e.g., in a chimeric construct, for any or all of these properties. Thus, for example, a peptide designated “B” in Table 8 can be used as a targeting peptide. If it is also designated G or M it can also be used for antimicrobial activity.

[2] = system: bacteria; assay: Binding of targeting peptides to microorganisms (Table 3); settings: peptide binding in aqueous buffers that varied depending on peptide solubility; preferably 1x PBS
[3] = system: microorganisms; assay: Morphology, biofilm and growth disruption by peptides (Table 5); assay type: cell-based; parameters: key: A: Peptide aggregates; B: Less hyphal formation; Clumps; Diffuse clumps and small polyps; F: Diffuse growth; H: Thin; I: Growth inhibition; Microcolony formation; Rippled; Small polyps; Thick; W: Halo formation on top, microlonies on bottom
From the text: In certain embodiments peptides that induce alterations in phenotype or other biological activities can also be used as antimicrobial effector moieties.

Molecule	Activities [1]	Target(s) (microorganism bound by the targeting peptide) [2]	Organism, effect (morphology, biofilm and growth disruption) ([3]; MRSA)	Organism, effect (morphology, biofilm and growth disruption) ([3]; S. pneumoniae)	Organism, effect (morphology, biofilm and growth disruption) ([3]; S. mutans)	Organism, effect (morphology, biofilm and growth disruption) ([3]; F. nucleatum)	Organism, effect (morphology, biofilm and growth disruption) ([3]; P. gingivalis)	Organism, effect (morphology, biofilm and growth disruption) ([3]; M. luteus)	Organism, effect (morphology, biofilm and growth disruption) ([3]; S. epidermidis)	Organism, effect (morphology, biofilm and growth disruption) ([3]; E. coli)	Organism, effect (morphology, biofilm and growth disruption) ([3]; P. aeruginosa)
PF-764 (chain 1 GYFEPGKRD; chain 2 GYFEPGKRD; Peptide with targeting and/or antimicrobial activity)	G B	S. epidermidis and M. luteus and C. albicans and MRSA and S. pneumoniae and E. faecalis and C. jeikeium	MRSA (D)	S. pneumoniae (H)	–	–	–	–	–	–	–
PF-C058 (FETGFGDGYYMSLWGLNEKDEVCKVVIPFINPELID; Peptide with targeting and/or antimicrobial activity)	G B	A. naeslundii; also recorded: F. nucleatum; also recorded: P. gingivalis; also recorded: S. mutans	–	–	S. mutans (F)	–	–	–	–	–	–
PF-C061 (TLNYKKMFFSVIFLLGLNYLICNSPLFFKQIEF; Peptide with targeting and/or antimicrobial activity)	G B	A. naeslundii; also recorded: F. nucleatum; also recorded: P. gingivalis; also recorded: S. mutans; also recorded: T. denticola	–	–	S. mutans (F)	F. nucleatum (T)	–	–	–	–	–
PF-C065 (DEERYSDSYFLKEKVFYLILALFLILFHQKYLYFLEIITI; Peptide with targeting and/or antimicrobial activity)	G B	A. naeslundii; also recorded: F. nucleatum; also recorded: P. gingivalis; also recorded: S. mutans	–	–	–	F. nucleatum (T)	–	–	–	–	–
PF-C072 (KKMFSLIRKVNWIFFILFIVLDLTNVFPLIRTILFAILSRQ; Peptide with targeting and/or antimicrobial activity)	G B	A. naeslundii; also recorded: F. nucleatum; also recorded: P. gingivalis; also recorded: S. mutans; also recorded: T. denticola	–	–	S. mutans (F)	F. nucleatum (T)	P. gingivalis (T)	–	–	–	–
PF-C095 (LLALNMNEDTYYFELFFIFDNQNKKWLIFDLKERG; Peptide with targeting and/or antimicrobial activity)	G B	A. naeslundii; also recorded: F. nucleatum; also recorded: P. gingivalis; also recorded: S. mutans	–	–	–	F. nucleatum (T)	–	–	–	–	–
PF-C098 (PETKGKVSAFVFGIVVANVIAVVYILYMLREIGIIQ; Peptide with targeting and/or antimicrobial activity)	G B	A. naeslundii; also recorded: F. nucleatum; also recorded: P. gingivalis; also recorded: S. mutans; also recorded: T. denticola	–	–	S. mutans (F)	F. nucleatum (T)	–	–	–	–	–
PF-C135 (KNTHAYLRVLRLSSLILSYQASVYPLFAYLCQQKDY; Peptide with targeting and/or antimicrobial activity)	G B	A. naeslundii; also recorded: F. nucleatum; also recorded: P. gingivalis; also recorded: S. mutans	–	–	S. mutans (F)	F. nucleatum (C)	–	–	–	–	–
B1	G B	S. epidermidis; also recorded: M. luteus; also recorded: E. coli; also recorded: P. aeruginosa; also recorded: C. albicans; also recorded: S. pneumoniae; also recorded: C. jeikeium	–	S. pneumoniae (H)	–	–	–	–	–	–	–
B2	G B	S. epidermidis; also recorded: M. luteus; also recorded: C. albicans	MRSA (C)	S. pneumoniae (C)	S. mutans (D)	–	–	M. luteus (C)	–	–	–
B3	G B	S. epidermidis and M. luteus and E. coli and C. albicans and MRSA and S. pneumoniae and E. faecalis	MRSA (D)	S. pneumoniae (C)	–	–	–	M. luteus (C)	S. epidermidis (M)	–	–
B4	G B	S. epidermidis and M. luteus and P. mirabilis and P. aeruginosa and C. albicans and MRSA and S. pneumoniae and E. faecalis	MRSA (D)	S. pneumoniae (C)	S. mutans (D)	–	–	M. luteus (C)	S. epidermidis (C)	E. coli (C)	P. aeruginosa (C)
